The values below come from patent US8461083B2, “Herbicidal compounds” (Syngenta Limited, priority 2008, dated 2013).

The subject of data set [1] is Alopecurus myosuroides (ALOMY). The data set can be described thus: Post-emergence herbicidal glasshouse test. It is filed as in vivo. Conditions: Alopecurus myosuroides, 312 h, post-emergence (sprayed after 8 days cultivation), evaluated after 13 days, 100=total damage to plant, 0=no damage to plant, read-out: POST Application ALOMY, damage to plant. The method, boiled down: (§1)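 Spray at 1000 g/ha, acetone/water 50:50 + 0.5% Tween 20; pre-em 1 d post-sowing, post-em 8 d post-sowing. Glasshouse 24/16 °C, 14 h light, 65% RH, watered twice daily. Visual damage score 0–100 at 13 d.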

In data set [2] the test system is Amaranthus retoflexus (AMARE). Nature of the data set: Post-emergence herbicidal glasshouse test. The data set is classed as in vivo. Conditions: Amaranthus retroflexus, 312 h, post-emergence (sprayed after 8 days cultivation), evaluated after 13 days, 100=total damage to plant, 0=no damage to plant, read-out: POST Application AMARE, damage to plant. In outline: as §1

Data set [3] deals with Echinochloa crus-galli (ECHCG). The data set can be described thus: Post-emergence herbicidal glasshouse test. The data set is classed as in vivo. The note with it: Echinochloa crus-galli, 312 h, post-emergence (sprayed after 8 days cultivation), evaluated after 13 days, 100=total damage to plant, 0=no damage to plant, read-out: POST Application ECHCG, damage to plant. The method, boiled down:
(§2)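 Glasshouse pots at 24/16 °C day/night, 14 h photoperiod and 65% humidity were treated once at 1000 g/ha, using 0.5% Tween 20 in acetone/water 50:50, before (1 d) or after (8 d) emergence. Phytotoxicity was scored 0–100 at 13 days.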

Data set [4] relates to Setaria faberi (SETFA). The data set can be described thus: Post-emergence herbicidal glasshouse test. The data set is classed as in vivo. Conditions: Setaria faberi, 312 h, post-emergence (sprayed after 8 days cultivation), evaluated after 13 days, 100=total damage to plant, 0=no damage to plant, read-out: POST Application SETFA, damage to plant. The method, boiled down:
as §1

The subject of data set [5] is Solanum nigrum (SOLNI). Nature of the data set: Post-emergence herbicidal glasshouse test. The data set is classed as in vivo. The note with it: Solanum nigrum, 312 h, post-emergence (sprayed after 8 days cultivation), evaluated after 13 days, 100=total damage to plant, 0=no damage to plant, read-out: POST Application SOLNI, damage to plant. In outline:
as §1

Data set [6] deals with Alopecurus myosuroides (ALOMY). The data set can be described thus: Pre-emergence herbicidal glasshouse test. It is filed as in vivo. Conditions: Alopecurus myosuroides, 312 h, pre-emergence (sprayed after one day cultivation), evaluated after 13 days, 100=total damage to plant, 0=no damage to plant, read-out: PRE Application ALOMY, damage to plant. In outline:
as §1

The test system of data set [7] is Echinochloa crus-galli (ECHCG). The data set can be described thus: Pre-emergence herbicidal glasshouse test. The data set is classed as in vivo. The note with it: Echinochloa crus-galli, 312 h, pre-emergence (sprayed after one day cultivation), evaluated after 13 days, 100=total damage to plant, 0=no damage to plant, read-out: PRE Application ECHCG, damage to plant. The method, boiled down:
as §2

Data set [8] has as its system Setaria faberi (SETFA). The data set can be described thus: Pre-emergence herbicidal glasshouse test. The data set is classed as in vivo. Conditions: Setaria faberi, 312 h, pre-emergence (sprayed after one day cultivation), evaluated after 13 days, 100=total damage to plant, 0=no damage to plant, read-out: PRE Application SETFA, damage to plant. In outline:
as §1

In data set [9] the test system is Solanum nigrum (SOLNI). Nature of the data set: Pre-emergence herbicidal glasshouse test. It is filed as in vivo. The note with it: Solanum nigrum, 312 h, pre-emergence (sprayed after one day cultivation), evaluated after 13 days, 100=total damage to plant, 0=no damage to plant, read-out: PRE Application SOLNI, damage to plant. In outline:
as §1

For data set [10], the system named is Amaranthus retoflexus (AMARE). The data set can be described thus: Pre-emergence herbicidal glasshouse test. It is filed as in vivo. Conditions: Amaranthus retroflexus, 312 h, pre-emergence (sprayed after one day cultivation), evaluated after 13 days, 100=total damage to plant, 0=no damage to plant, read-out: PRE Application AMARE, damage to plant. In outline: as §1

Molecules are shown by their SMILES.

By melting point is commonly meant the temperature, or range, at which the solid turns liquid. `COCC(F)(F)c1nc2nc(C)c(F)cc2cc1C(=O)C1C(=O)C2CCC(C2)C1=O` (stereo not drawn) [Compound 3.13, 3-[6-fluoro-2-(2-methoxy-1,1-difluoroethyl)-7-methyl [1,8]-naphthyridine-3-carbonyl]-bicyclo[3.2.1]octane-2,4-dione] displayed a melting point of 177 to 180 °C. Besides, in data set [1], the pest or weed control at 1000 g/ha came out at 40%. Further, the pest or weed control at 1000 g/ha in data set [2] worked out at 70%. Moreover, in data set [3], the pest or weed control at 1000 g/ha was found to be 80%. For the same compound, in the data set with Setaria faberi (SETFA) [4], the pest or weed control at 1000 g/ha was 80%. In addition, the pest or weed control at 1000 g/ha with Solanum nigrum (SOLNI) [5] amounted to 70%. Also, in data set [6], the pest or weed control at 1000 g/ha is 10%. Further, the pest or weed control at 1000 g/ha in data set [7] came out at 100%. Moreover, the pest or weed control at 1000 g/ha in the data set with Setaria faberi (SETFA) [8] turned out to be 80%. Also, in the data set with Solanum nigrum (SOLNI) [9], the pest or weed control at 1000 g/ha was determined as 80%.

On to `Cc1c(F)cnc2nc(C(F)(F)F)c(C(=O)C3C(=O)C4CCC(C4)C3=O)cc12` (stereo not drawn) [Compound 3.5, 3-[6-Fluoro-5-methyl-2-trifluoromethyl-[1,8]-naphthyridine-3-carbony]-bicyclo[3.2.1]octane-2,4-dione], for which the pest or weed control at 1000 g/ha in data set [1] was determined as 0%; in [2], 50%; in [3] it was 70%; in the data set on Setaria faberi (SETFA) [4], 70%; in the data set with Solanum nigrum (SOLNI) [5], 80%; in [6], 0%. Moreover, the pest or weed control at 1000 g/ha in data set [10] was found to be 20%; in data set [7], 50%; in the data set on Setaria faberi (SETFA) [8], 30%; in the data set on Solanum nigrum (SOLNI) [9], 60%.

With `Cc1nc2nc(C(F)(F)F)c(C(=O)C3C(=O)CCCC3=O)cc2cc1F` [Compound 1.41, 2-[6-fluoro-7-methyl-2-trifluoromethyl-[1,8]-naphthyridine-3-carbony]-cyclohexane-1,3-dione], the pest or weed control at 1000 g/ha in data set [1] was found to be 90%; in data set [2], 100%; in data set [3] it was 90%; in the data set on Setaria faberi (SETFA) [4] it was 100%; in the data set with Solanum nigrum (SOLNI) [5], 90%; in [6], 90%. Further, the pest or weed control at 1000 g/ha (in data set [10]; in [7]; in the data set with Setaria faberi (SETFA) [8]; with Solanum nigrum (SOLNI) [9]) was 100% throughout.
